Data set [1] has as its target T1, recombinant rat mGluR2 expressed in CHO cells (Rattus norvegicus, UniProt P31421).
T1 construct: expressed in transfected cells; vector pcDNA I-amp, construct pcD1mGR2
Kind of data set: [3H]-LY354740 binding on mGlu2 transfected CHO cell membranes (displacement binding assay).
Description: These values were obtained by indirect measurement of the affinity of the compounds for the recombinant rat mGluR2 expressed in CHO cells using a displacement binding assay with 3H-LY354740.
Transfection and Cell Culture
cDNA encoding the rat mGlu2 receptor protein in pBluescript II was obtained from Prof. S. Nakanishi (Kyoto, Japan), and subcloned into the eukaryotic expression vector pcDNA I-amp from Invitrogen (NV Leek, The Netherlands). This vector construct (pcD1mGR2) was co-transfected with a psvNeo plasmid encoding the gene for neomycin resistance, into CHO cells by a modified calcium phosphate method described by Chen & Okayama (1988). The cells were maintained in Dulbecco's Modified Eagle medium with reduced L-glutamine (2 mM final concentration) and 10% dialysed foetal calf serum from Gibco BRL (Basel, Switzerland). Selection was made in the presence of G-418 (1000 ug/ml final). Clones were identified by reverse transcription of 5 μg total RNA, followed by PCR using mGlu2 receptor specific primers 5′-[sequence]-3′ and 5′-[sequence]-3′ in 60 mM Tris HCl (pH 10), 15 mM (NH4)2SO4, 2 mM MgCl2, 25 units/ml Taq Polymerase with 30 cycles annealing at 60° C. for 1 min., extention at 72° C. for 30 s, and 1 min. 95° C. denaturation.
Cells, cultured as above, were harvested and washed three times with cold PBS and frozen at −80° C. The pellet was resuspended in cold 20 mM HEPES-NaOH buffer containing 10 mM EDTA (pH 7.4), and homogenised with a polytron (Kinematica, AG, Littau, Switzerland) for 10 s at 10 000 rpm. After centrifugation for 30 min. at 4° C., the pellet was washed once with the same buffer, and once with cold 20 mM HEPES-NaOH buffer containing 0.1 mM EDTA, (pH 7.4). Protein content was measured using the Pierce method (Socochim, Lausanne, Switzerland) using bovine serum albumin as standard.
After thawing, the membranes were resuspended in cold 50 mM Tris-HCl buffer containing 2 mM MgCl2 and 2 mM CaCl2, (pH 7) (binding buffer). The final concentration of the membranes in the assays was 25 µg protein/ml. Inhibition experiments were performed with membranes incubated with 10 nM [^3H]-LY354740 at room temperature, for 1 hour, in presence of various concentrations of the compound to be tested. Following the incubations, membranes were filtered onto Whatmann GF/C glass fiber filters and washed 5 times with cold binding buffer. Non specific binding was measured in the presence of 10 μM DCG IV. After transfer of the filters into plastic vials containing 10 ml of Ultima-gold scintillation fluid (Packard, Zürich, Switzerland), the radioactivity was measured by liquid scintillation in a Tri-Carb 2500 TR counter (Packard, Zürich, Switzerland).
The inhibition curves were fitted with a four parameter logistic equation giving IC50 values, and Hill coefficients and the Ki values were calculated using the Cheng and Prusoff equation (Cheng, Y. and Prusoff, W. H., Biochem. Pharmacol. 1973, 22, 3099-3108). A small Ki value expresses high affinity of the compound towards the receptor.

Results on 21 molecules are retold here after patent US6544985B2, “Dihydro-benzo [b][1,4]diazepin-2-one derivatives” (Hoffman-La Roche Inc., priority 2001, dated 2003).

Broadly, the Ki is a measure of affinity in units of concentration, obtained from inhibition or displacement. One may read the melting point as the temperature, or range, at which the solid turns liquid.

T1 sequence (P31421 19-872): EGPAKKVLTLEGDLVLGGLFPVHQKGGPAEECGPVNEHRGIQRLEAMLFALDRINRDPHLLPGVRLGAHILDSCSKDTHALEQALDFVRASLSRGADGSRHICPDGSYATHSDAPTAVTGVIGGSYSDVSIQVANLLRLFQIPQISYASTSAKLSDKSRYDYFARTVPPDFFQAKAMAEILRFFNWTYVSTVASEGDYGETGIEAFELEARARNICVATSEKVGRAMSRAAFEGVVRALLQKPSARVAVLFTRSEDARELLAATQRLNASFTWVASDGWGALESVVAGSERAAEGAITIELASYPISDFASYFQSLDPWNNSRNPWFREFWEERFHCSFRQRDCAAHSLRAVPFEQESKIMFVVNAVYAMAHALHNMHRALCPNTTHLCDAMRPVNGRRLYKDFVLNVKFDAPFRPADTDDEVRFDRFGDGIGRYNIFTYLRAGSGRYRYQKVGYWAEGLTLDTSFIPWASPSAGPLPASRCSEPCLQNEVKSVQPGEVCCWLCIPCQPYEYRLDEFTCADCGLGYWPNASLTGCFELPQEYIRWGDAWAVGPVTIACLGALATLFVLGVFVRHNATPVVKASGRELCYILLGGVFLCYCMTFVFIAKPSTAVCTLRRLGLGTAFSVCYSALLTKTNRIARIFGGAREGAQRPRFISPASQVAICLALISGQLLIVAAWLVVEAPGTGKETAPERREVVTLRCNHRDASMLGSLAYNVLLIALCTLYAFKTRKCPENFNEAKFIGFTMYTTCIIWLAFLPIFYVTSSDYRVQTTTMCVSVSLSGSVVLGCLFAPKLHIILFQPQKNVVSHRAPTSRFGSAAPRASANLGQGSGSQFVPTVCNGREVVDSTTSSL

As for `CN(c1cc2c(cc1Cl)NC(=O)CC(c1cccc(-n3nncc3CO)c1)=N2)C1CC1` [Example 37, 8-Chloro-7-(cyclopropyl-methyl-amino)-4-[3-(5-hydroxymethyl-[1,2,3]triazol-1-yl)-phenyl]-1,3-dihydro-benzo[b][1,4]diazepin-2-one], the inhibitory constant (Ki) in data set [1] came to 160 nM.
As for `CN(C)c1cc2c(cc1Cl)NC(=O)CC(c1cccc(-c3csc(Nc4ccncc4)n3)c1)=N2` [Example 197, 8-Chloro-7-dimethylamino-4-{3-[2-(pyridin-4-ylamino)-thiazol-4-yl]-phenyl}-1,3-dihydro-benzo[b][1,4]diazepin-2-one], the melting point was in the range of 231 to 234 °C.
In turn, `CCCN(C)c1cc2c(cc1Cl)NC(=O)CC(c1cccc(-c3coc(C)n3)c1)=N2` [Example 198, 8-Chloro-4-[3-(2-methyl-oxazol-4-yl)-phenyl]-7-(methyl-propyl-amino)-1,3-dihydro-benzo[b][1,4]diazepin-2-one] gave a melting point of 163 to 164 °C.
Still for that read-out and setting: the same measure for `CCCN(C)c1cc2c(cc1C)NC(=O)CC(c1cccc(-c3nc(CO)cs3)c1)=N2` [Example 199, 4-[3-(4-Hydroxymethyl-thiazol-2-yl)-phenyl]-8-methyl-7-(methyl-propyl-amino)-1,3-dihydro-benzo[b][1,4]diazepin-2-one]: 222 to 224 °C; for `CCCN(C)c1cc2c(cc1C)NC(=O)CC(c1cccc(-c3nc(CO)co3)c1)=N2` [Example 200, 4-[3-(4-Hydroxymethyl-oxazol-2-yl)-phenyl]-8-methyl-7-(methyl-propyl-amino)-1,3-dihydro-benzo[b][1,4]diazepin-2-one]: 200 to 202 °C.
As for `CN(C)c1cc2c(cc1C(F)(F)F)NC(=O)CC(c1cccc(-c3nc(CO)cs3)c1)=N2` [Example 201, 7-Dimethylamino-4-[3-(4-hydroxymethyl-thiazol-2-yl)-phenyl]-8-trifluoromethyl-1,3-dihydro-benzo[b][1,4]diazepin-2-one], the melting point fell in the range of 198 to 199 °C.
Still for that read-out and setting: the same measure for `CN(C)c1cc2c(cc1C(F)(F)F)NC(=O)CC(c1cccc(-c3nc(CO)co3)c1)=N2` [Example 202, 7-Dimethylamino-4-[3-(4-hydroxymethyl-oxazol-2-yl)-phenyl]-8-trifluoromethyl-1,3-dihydro-benzo[b][1,4]diazepin-2-one]: 197 to 198 °C.
Regarding `CCCN(C)c1cc2c(cc1C(F)(F)F)NC(=O)CC(c1cccc(-c3nc(CO)cs3)c1)=N2` [Example 203, 4-[3-(4-Hydroxymethyl-thiazol-2-yl)-phenyl]-7-(methyl-propyl-amino)-8-trifluoromethyl-1,3-dihydro-benzo[b][1,4]diazepin-2-one], the melting point is 177 to 180 °C.
Regarding `CN(C)c1cc2c(cc1C(F)(F)F)NC(=O)CC(c1cccc(-c3nnc(CCO)s3)c1)=N2` [Example 205, 7-Dimethylamino-4-{3-[5-(2-hydroxy-ethyl)-[1,3,4]thiadiazol-2-yl]-phenyl}-8-trifluoromethyl-1,3-dihydro-benzo[b][1,4]diazepin-2-one], the melting point fell in the range of 234 to 237 °C.
As for `CN(C)c1cc2c(cc1C(F)(F)F)NC(=O)CC(c1cccc(-c3nnc(CCO)o3)c1)=N2` [Example 207, 7-Dimethylamino-4-{3-[5-(2-hydroxy-ethyl)-[1,3,4]oxadiazol-2-yl]-phenyl}-8-trifluoromethyl-1,3-dihydro-benzo[b][1,4]diazepin-2-one], the melting point was 237 °C (dec.).
The same measure, in the same setting: the same measure for `CN(C)c1cc2c(cc1C(F)(F)F)NC(=O)CC(c1cccc(-c3cocn3)c1)=N2` [Example 208, 7-Dimethylamino-4-(3-oxazol-4-yl-phenyl)-8-trifluoromethyl-1,3-dihydro-benzo[b][1,4]diazepin-2-one]: 218 to 219 °C.
The same measure, in the same setting: the same measure for `CN(C)c1cc2c(cc1C(F)(F)F)NC(=O)CC(c1cccc(-c3cscn3)c1)=N2` [Example 209, 7-Dimethylamino-4-(3-thiazol-4-yl-phenyl)-8-trifluoromethyl-1,3-dihydro-benzo[b][1,4]diazepin-2-one]: 200 °C (dec.); for `Cc1nc(-c2cccc(C3=Nc4cc(N(C)C)c(C(F)(F)F)cc4NC(=O)C3)c2)co1` [Example 210, 7-Dimethylamino-4-[3-(2-methyl-oxazol-4-yl)-phenyl]-8-trifluoromethyl-1,3-dihydro-benzo[b][1,4]diazepin-2-one]: 192 to 193 °C; for `Cc1ocnc1-c1cccc(C2=Nc3cc(N(C)C)c(C(F)(F)F)cc3NC(=O)C2)c1` [Example 211, 7-Dimethylamino-4-[3-(5-methyl-oxazol-4-yl)-phenyl]-8-trifluoromethyl-1,3-dihydro-benzo[b][1,4]diazepin-2-one]: 238 to 239 °C.
In turn, `Cc1scnc1-c1cccc(C2=Nc3cc(N(C)C)c(C(F)(F)F)cc3NC(=O)C2)c1` [Example 213, 7-Dimethylamino-4-[3-(5-methyl-thiazol-4-yl)-phenyl]-8-trifluoromethyl-1,3-dihydro-benzo[b][1,4]diazepin-2-one] gave a melting point of 214 to 215 °C.
On the same count and under the same terms, the same measure for `Cc1nc(-c2cccc(C3=Nc4cc(N(C)C)c(C(F)(F)F)cc4NC(=O)C3)c2)c(C)s1` [Example 214, 7-Dimethylamino-4-[3-(2,5-dimethyl-thiazol-4-yl)-phenyl]-8-trifluoromethyl-1,3-dihydro-benzo[b][1,4]diazepin-2-one]: 208 to 209 °C; for `Cc1sc(CO)nc1-c1cccc(C2=Nc3cc(N(C)C)c(C(F)(F)F)cc3NC(=O)C2)c1` [Example 216, 7-Dimethylamino-4-[3-(2-hydroxymethyl-5-methyl-thiazol-4-yl)-phenyl]-8-trifluoromethyl-1,3-dihydro-benzo[b][1,4]diazepin-2-one]: 190 to 193 °C.
Regarding `CCCc1sc(CO)nc1-c1cccc(C2=Nc3cc(N(C)C)c(C(F)(F)F)cc3NC(=O)C2)c1` [Example 217, 7-Dimethylamino-4-[3-(2-hydroxymethyl-5-propyl-thiazol-4-yl)-phenyl]-8-trifluoromethyl-1,3-dihydro-benzo[b][1,4]diazepin-2-one], the melting point is 112 to 114 °C.
Still for that read-out and setting: under `Cc1nc(-c2cccc(C3=Nc4cc(N(C)C)c(C(F)(F)F)cc4NC(=O)C3)c2)c(CO)s1` [Example 218, 7-Dimethylamino-4-[3-(5-hydroxymethyl-2-methyl-thiazol-4-yl)-phenyl]-8-trifluoromethyl-1,3-dihydro-benzo[b][1,4]diazepin-2-one] stands 226 to 227 °C.
On the same count and under the same terms, under `CC(C)c1nc(-c2cccc(C3=Nc4cc(N(C)C)c(C(F)(F)F)cc4NC(=O)C3)c2)c[nH]1` [Example 221, 7-Dimethylamino-4-[3-(2-isopropyl-1H-imidazol-4-yl)-phenyl]-8-trifluoromethyl-1,3-dihydro-benzo[b][1,4]diazepin-2-one] stands 150 °C (dec.).
On the same count and under the same terms, the same measure for `CN(C)c1cc2c(cc1Cl)NC(=O)CC(c1cccc(-c3nnc(CCO)s3)c1)=N2` [Example 223, 8-Chloro-7-dimethylamino-4-{3-[5-(2-hydroxy-ethyl)-[1,3,4]thiadiazol-2-yl]-phenyl}-1,3-dihydro-benzo[b][1,4]diazepin-2-one]: 198 to 200 °C.
